Columns and labels:
[1] = tested on: murine breast tumors (BH archive); assay: tumor response to tivozanib, subcutaneously transplanted murine Her2-driven breast tumors (BH archive) in NCr nude mice; type: in vivo, mouse
Text: A population of more than 100 murine breast tumors (BH archive) was used to identify tumors that are sensitive to tivozanib (responders) and tumors that are resistant to tivozanib (non-responders). The BH archive was established by in vivo propagation and cryopreservation of primary tumor material from more than 100 spontaneous murine breast tumors derived from engineered chimeric mice that develop Her2-dependent, inducible spontaneous breast tumors. The mice were produced essentially as follows.
Tumor cells were isolated by physical disruption of the tumors using cell strainers. Typically 1×10^5 cells were mixed with matrigel (50:50 volume) and injected subcutaneously into female NCr nu/nu mice on upper dorsal region between the shoulder blades. When these tumors grew to approximately 500 mm^3, which typically required 2 to 4 weeks, they were collected for further propagation, drug response testing, and analysis. Analysis included microarray profiling, general histopathology, and IHC (CD31 for tumor vasculature, Ki67 for tumor cell proliferation).
Evaluation of tumor response to tivozanib was performed essentially as follows. Subcutaneously transplanted tumors were established by injecting physically disrupted tumor cells (mixed with Matrigel) into 7 week-old female NCr nude mice. When the tumors reached approximately 200-400 mm^3, 30 tumor-bearing mice were randomized into three groups. Group 1 received vehicle. Group 2 received tivozanib at 5 mg/kg daily by oral gavage. Group 3 received tivozanib at 20 mg/kg daily by oral gavage. Tumors were measured twice per week by a caliper, and tumor volume was calculated. At the end of the treatment, tumors were collected for histopathological analysis and IHC analysis.
Based on tumor growth inhibition and typical histopathological and IHC (CD31) characteristics for angiogenesis inhibition, responders and non-responders were identified. […]

[2] = 272-patient Phase 2 clinical trial; Bhargava et al., 2009; cited from earlier work
preclinical models = conditions: Nakamura et al., 2006; cited from earlier work
VEGF receptor 3 = VEGF receptor 3 (Homo sapiens, UniProt P35916); conditions: Nakamura et al., 2006; cited from earlier work
Chain of VEGF receptor 3 (P35916 25-1363): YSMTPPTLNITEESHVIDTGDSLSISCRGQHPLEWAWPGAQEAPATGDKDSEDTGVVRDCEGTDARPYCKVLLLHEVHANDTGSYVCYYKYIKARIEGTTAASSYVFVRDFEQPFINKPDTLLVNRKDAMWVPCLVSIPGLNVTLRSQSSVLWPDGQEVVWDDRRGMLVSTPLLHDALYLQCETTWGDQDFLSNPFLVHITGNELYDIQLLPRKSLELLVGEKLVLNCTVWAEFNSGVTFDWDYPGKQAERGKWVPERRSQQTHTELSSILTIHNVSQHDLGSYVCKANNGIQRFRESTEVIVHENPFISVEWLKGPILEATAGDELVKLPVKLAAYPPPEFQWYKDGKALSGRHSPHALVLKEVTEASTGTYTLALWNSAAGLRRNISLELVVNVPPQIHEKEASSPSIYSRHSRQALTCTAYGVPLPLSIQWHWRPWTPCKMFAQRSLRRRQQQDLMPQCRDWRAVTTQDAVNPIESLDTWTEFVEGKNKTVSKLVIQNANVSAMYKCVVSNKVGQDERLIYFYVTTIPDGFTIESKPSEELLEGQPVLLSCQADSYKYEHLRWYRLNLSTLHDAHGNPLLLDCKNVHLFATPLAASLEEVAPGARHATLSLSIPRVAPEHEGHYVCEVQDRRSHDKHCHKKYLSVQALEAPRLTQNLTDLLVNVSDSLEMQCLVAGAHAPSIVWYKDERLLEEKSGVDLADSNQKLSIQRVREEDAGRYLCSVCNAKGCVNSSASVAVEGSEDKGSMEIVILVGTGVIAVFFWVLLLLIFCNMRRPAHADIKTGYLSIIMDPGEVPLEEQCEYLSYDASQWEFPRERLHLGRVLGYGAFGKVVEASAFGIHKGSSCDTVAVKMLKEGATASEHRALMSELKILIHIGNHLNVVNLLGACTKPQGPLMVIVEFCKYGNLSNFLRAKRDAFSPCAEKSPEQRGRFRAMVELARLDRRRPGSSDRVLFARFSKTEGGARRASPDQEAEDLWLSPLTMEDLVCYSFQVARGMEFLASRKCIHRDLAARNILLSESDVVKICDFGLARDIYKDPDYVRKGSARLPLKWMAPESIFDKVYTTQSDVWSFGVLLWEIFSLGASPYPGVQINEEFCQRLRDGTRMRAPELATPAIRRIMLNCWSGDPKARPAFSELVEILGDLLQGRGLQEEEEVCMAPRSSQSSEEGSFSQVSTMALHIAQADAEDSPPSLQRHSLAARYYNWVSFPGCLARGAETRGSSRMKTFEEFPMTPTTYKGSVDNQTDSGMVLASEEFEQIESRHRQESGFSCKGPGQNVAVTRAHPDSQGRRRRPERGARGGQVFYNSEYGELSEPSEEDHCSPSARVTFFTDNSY

COc1cc2nccc(Oc3ccc(NC(=O)Nc4cc(C)on4)c(Cl)c3)c2cc1OC [Tivozanib, N-{2-chloro-4-[(6,7-dimethoxy-4-quinolyl)oxy]-phenyl}-N′-(5-methyl-3-isoxazolyl)urea]
variation in response among tumors ([1]; 5 or 20 mg/kg daily by oral gavage, tumor growth inhibition, histopathology, IHC (CD31)): significant tumor-to-tumor variation in response
tumor progression by caliper measurement ([1]; responder tumors, 5 mg/kg daily by oral gavage): no tumor progression
tumor killing (by histology) ([1]; responder tumors, 5 mg/kg daily by oral gavage, except the peripheries): close to complete tumor killing
interim results [2]: positive interim results
antitumor activity (preclinical models): exhibits antitumor activity
inhibitory activity (VEGF receptor 3): picomolar
